{"source": "paper PMC12439166", "about": "“Dietary flavonoids form supramolecular assemblies, alter biochemistry, and enhance cell resilience” (Frontiers in Nutrition, 2025)", "tested_on": "human fibroblasts", "assay": "TMT proteomics of fibroblasts with and without UV exposure, differential expression and pathway analysis", "assay_type": "cell-based", "settings": "result in words", "description": "Human fibroblasts were obtained from Cell Applications Inc (Cat. # 106-05a) and were maintained in Dulbecco’s Modified Eagle medium (DMEM, Corning, Cat. #10-013-CV) with 10% fetal bovine serum (Gibco, Cat. #10082147) and 1% penicillin/streptomycin (Gibco, Cat. # 15070-063) in a humidified incubator with 5% CO2 at 37 °C. For ultraviolet radiation, fibroblasts were seeded in a 96-well plate at a density of 25,000 cells/well and maintained at 37 °C for 24 h. Cells were washed once with Hanks’ balanced salt solution (HBSS, Gibco, Cat. #14025-092), then treated for 1 h with different concentrations of compounds prepared in HBSS. Vitamin C (Sigma, Cat. # A5960) served as a positive control. Treated cells were exposed to ultraviolet light (UVP cross-linker, CL1000, 254 nm UV, 8 watts) at a total dose of 20 mJ/cm^2. Following irradiation, the HBSS was replaced with culture medium containing the same concentration of compounds as before irradiation, and cells were again maintained at 37 °C. Cell viability was measured at 24 h post-irradiation using CellTiter-Glo according to the manufacturer’s instructions (Promega, Cat.# G7571). Results were expressed as relative cell viability (%) with respect to control cells (cells without ultraviolet irradiation or compound treatment).\nFrozen cell pellets were dissolved for 15 min in 6M Guanidinium Chloride at room temperature to lyse cells. Then, each solution was run on a 10 kDa filter (Pall, TX) and washed with 50 μL of TEAB buffer at 3000 rpm. FASP Digestion ([56]): A stock solution of Trypsin Platinum, Mass Spec Grade (Promega) at 100 μg/mL in 50 mM TEAB, and a specific volume of stock trypsin was added to each sample vial for each set of […] using a 1:50 ratio (Trypsin:Protein). Samples were incubated for 2 h at 50 °C and shaken/mixed at 350 rpm on an Eppendorf ThermoMixer C. TMT Labeling: Samples, now peptides, were labeled using 4 μL of TMTpro Mass Tag Labels (ThermoScientific). After labeling, samples were then shaken/mixed for 45 min to ensure labels were covalently bonded to peptides. The labeling reaction was quenched for 10 min using 1 μL of 5% hydroxyalamine. After quenching, samples were pooled into one 2 mL Eppendorf tube and then dried down using an Eppendorf Vacufuge Plus. Desalting Samples: Dried samples were resuspended in 300 μL of 0.1% TFA in ultrapure HPLC-grade water and vortexed to ensure full solubility. Samples were then desalted using Pierce^TM Peptide Desalting Spin Columns (ThermoScientific). Final eluates (desalted samples) contained 600 μL of 50% HPLC-grade Acetonitrile and 50% ultrapure HPLC-grade water. Desalted samples were then transferred to HPLC vials and were again dried down. […]"}
{"compound": "O=c1c(O[C@@H]2O[C@H](CO)[C@@H](O)[C@H](O)[C@H]2O)c(-c2ccc(O)c(O)c2)oc2cc(O)cc(O)c12", "note": "[isoquercitrin]", "values": [{"measurement": "proteins/pathways up- and downregulated, exposed to UV radiation", "setting": "UV-irradiated cells", "value": "upregulation of collagen and cell cycle/DNA repair proteins while downregulating proteins associated with autophagy, necroptosis, ferroptosis, lysosomal degradation, and other pathways"}, {"measurement": "proteins/pathways up- and downregulated, without UV treatment", "setting": "control conditions without UV", "value": "upregulated proteins associated with DNA repair pathways and downregulated inflammatory pathways"}]}
